The subject of data set [1] is human P-gp. The conditions noted are these: cited from earlier work.
Data set [2] has as its system human BCRP. Conditions: cited from earlier work.
Data set [3] deals with OATP2B1. The conditions noted are these: cited from earlier work.
Data set [4] has as its system OATP1B1. Conditions: cited from earlier work.
Data set [5] relates to OATP1A2. The conditions noted are these: cited from earlier work.
The conditions of data set [6]: cited from earlier work.
For data set [7] the following is noted: cited from earlier work. The source holds these as a separate data set.
Data set [8] can be described thus: clinical. The conditions noted are these: human, in vivo. An excerpt: Healthy Chinese male subjects aged 18–45 years were recruited from a pool of over 200 healthy volunteers who had been genotyped for the ABCG2 421C>A (rs2231142) polymorphism. A total of 20 healthy Chinese male subjects were selected for the rosuvastatin pharmacokinetic study based on the ABCG2 421C>A genotypes. The study was reviewed and approved by the Joint Chinese University of Hong Kong-New Territories East Cluster Clinical Research Ethics Committee with reference number CRE-2010.524-T. The study was performed in accordance with the ethical standards laid down in the Declaration of Helsinki and subsequent revisions. Written informed consent was obtained from each participant.
All subjects were required to abstain from any prescription or non-prescription medications 2 weeks before and throughout the study. They were not allowed to take alcohol, tea, grapefruit juice, caffeine, soybean milk or dietary supplements and herbal products 2 weeks before and throughout the entire study period. They were also not allowed to smoke 2 weeks before and throughout the study. Subjects were requested to fast for 10 h before and 4 h after drug administration during the blood sampling sessions. Meals were standardized and consumed at 4 h and 10 h post-dosing. Drinking water was not allowed from 1 h pre-dose to 1 h post-dose except that needed for drug dosing at the time of blood sampling sessions. Subjects were asked to report any adverse effects at each visit to the study center.
This was an open-label, three-phase randomized crossover study. […] The herbal extracts were present as a powder which was taken in 150 ml water at room temperature. Blood samples were taken at intervals from 0 to 24 h on the rosuvastatin dosing days. During the study, subjects were frequently reminded of the requirements for diet restrictions, and they were requested to record their daily food intake, including the main meals, snacks and beverages of the day by using a simple food diary, which can help to monitor the food compliance during the study.
Plasma concentrations of rosuvastatin were determined by Liquid Chromatography-Tandem Mass Spectrometry (LC-MS/MS) using the corresponding isotopically labeled compound as an internal standard as described ([28]). The plasma samples were prepared using liquid–liquid extraction with diethyl ether. Chromatographic separation was accomplished on an Xterra MS C18 column (50 × 2.1 mm, 5 μm; Waters, Milford, MA). The mobile phase consisted of a gradient mixture of 0.015 mmol/L ammonium acetate in water (mobile phase A) and methanol (mobile phase B) at a flow rate of 0.4 mL/min. The gradient started at 20% mobile phase B for 0.5 min with a subsequent fast gradient to 100% mobile phase B in 1 min and maintained for another 2.5 min. The gradient was then returned to the initial mobile phase concentration in a chromatographic run of 8 min. MS/MS detection with quantification transition of m/z 480.1–418.1 and qualification transition of m/z 480.1–340.1 was used for rosuvastatin. The lower limit of quantification of rosuvastatin was 0.05 μg/L by using 200 μL plasma.
The pharmacokinetic parameters of rosuvastatin were calculated using non-compartmental methods with the aid of the computer program WinNolin (version 2.1, Pharsight Corporation). The maximum plasma concentration (Cmax) and time to Cmax (tmax) were obtained directly from the observed concentration-time data. The terminal elimination rate constant (λZ) was estimated by linear regression of the terminal portion of the concentration-time curve, and the elimination half-life (t1/2) was calculated as 0.693/λZ. Systemic exposure to rosuvastatin was evaluated by calculating the AUC using the linear trapezoidal rule and AUC0−∞ was calculated as AUC0−∞ = AUC0−t + Ct/Kel where Ct is the last quantifiable concentration. The oral clearance (CL/F) was calculated as Dose/AUC0−∞.

For data set [9] the following is noted: with green tea; 10 healthy volunteers; cited from earlier work.
The conditions of data set [10]: cited from earlier work. This is another data set of the same source.
The conditions of data set [11]: cited from earlier work. This is another data set of the same source.
Data set [12] concerns OATP1B3. The conditions noted are these: in vitro studies; cited from earlier work.
Setting [13] is: rosuvastatin administered with 300 mg pure crystalline EGCG (single dose).
[14] abbreviates: pre-treatment with green tea extract (400 mg/kg) vs control.

Where two headings read alike, the source gives them in different places.

Take `Oc1cc(O)c2c(c1)O[C@H](c1ccc(O)c(O)c1)[C@H](O)C2` [EC, epicatechin]: the “effect on P-gp-mediated dasatinib efflux” value in data set [1] was “no significant effect”. Further, the “effect on BCRP-mediated dasatinib efflux” value in [2] was “no significant effect”.

On to `O=C(O[C@@H]1Cc2c(O)cc(O)cc2O[C@@H]1c1ccc(O)c(O)c1)c1cc(O)c(O)c(O)c1` [ECG, epicatechin gallate], for which the “effect on P-gp-mediated dasatinib efflux” value in data set [1] is “no significant effect”. The “inhibition of OATP2B1” value in [3] is recorded as “can inhibit”. In addition, in data set [4], the “inhibition of OATP1B1” value is on record as “can inhibit”. In [2], the “effect on BCRP-mediated dasatinib efflux” value is “no significant effect”. Further, in [5], the “inhibition of OATP1A2” value is “can inhibit”.

On to `Oc1cc(O)c2c(c1)O[C@H](c1cc(O)c(O)c(O)c1)[C@H](O)C2` [EGC, epigallocatechin], for which the “effect on P-gp-mediated dasatinib efflux” value in data set [1] is on record as “no significant effect”. The “effect on BCRP-mediated dasatinib efflux” value in [2] is listed as “no significant effect”.

`CC(C)c1nc(N(C)S(C)(=O)=O)nc(-c2ccc(F)cc2)c1/C=C/[C@@H](O)C[C@@H](O)CC(=O)O` [Rosuvastatin, rosuvastatin]: the “change of systemic exposure of rosuvastatin after baicalin compared to placebo” value in data set [6] (SLCO1B1*1b/*1b subjects) is −41.9%. In data set [6] (SLCO1B1*1b/*15 subjects), the “change of systemic exposure of rosuvastatin after baicalin compared to placebo” value is listed as −23.9%. The “systemic exposure of rosuvastatin vs baseline before EGCG” value in [7] (after giving EGCG daily for 10 days) is on record as “not significantly different from the baseline value”. In data set [7] (setting [13]), the “reduction of AUC up to 8 h” value is listed as 19% and the “reduction of Cmax” value is given as 15%. In addition, in [8] (po, 10 mg), the “Clearance (oral clearance CL/F)” value is on record as 85.1 (28.4) L/h. Moreover, in data set [8] (male), the “AUC0−24h GMR (90%CI)” value was determined as 0.78 and the “Cmax GMR (90%CI)” value came to 0.71. Moreover, in data set [8] (male, 10 mg), the total exposure AUC(0-inf) worked out at 118 ng·h/mL, the exposure AUC(0-t) amounted to 109 ng·h/mL, the Cmax is listed as 13.1 (32.2) μg/L and the half-life is 6.21 h. Moreover, in [8] (male, 10 mg), the tmax was 3.0 (1.5, 6.0) h.

As to `CC(C)(C)NCC(O)COc1cccc2c1CC(O)C(O)C2` (centres unmarked) [nadolol], in data set [9], the “decrease of AUC of nadolol” value is given as 85.0% and the “decrease of Cmax of nadolol” value is given as 85.3%. Also, in data set [10] (EGCG alone (150 mg/kg)), the “reduction in AUC of nadolol” value was 73% and the “reduction in Cmax of nadolol” value is 81%. Further, in [10] (setting [14]), the “reduction in AUC of nadolol” value was 74% and the “reduction in Cmax of nadolol” value is recorded as 85%.

In the case of `CCN(CC)CCNC(=O)c1c(C)[nH]c(/C=C2\C(=O)Nc3ccc(F)cc32)c1C` [sunitinib], the “effect of EGCG on bioavailability of sunitinib” value in [11] (EGCG and sunitinib taken together) is given as “reduced the bioavailability”. In addition, the “effect of EGCG on the pharmacokinetics of sunitinib” value in data set [11] (EGCG taken 8 or 4 h before sunitinib administration) is “no effect”.

On to (–)-epigallocatechin-3-gallate [EGCG], for which the “effect on OATP1B3” value in [12] was “activate”. For the same compound, the “effect on P-gp-mediated dasatinib efflux” value in data set [1] was “no significant effect”. Also, the “effect on OATP2B1-mediated uptake of estrone-3-sulfate” value in data set [3] (concentration-dependent) is reported as “inhibited”. In addition, in [2], the “effect on BCRP-mediated dasatinib efflux” value is “no significant effect”. Besides, in [5] (concentration-dependent), the “effect on OATP1A2-mediated uptake of estrone-3-sulfate” value is “inhibited”.
